Results taken from patent US8481584B2, “1H-thieno[2,3-c]pyrazole derivatives useful as kinase inhibitors” (Nerviano Medical Sciences S.R.L., priority 2004, dated 2013).
Where two headings read alike, the source gives them in different places.

Experiments:
Aurora-2 = target: T1, Aurora-2 (Homo sapiens, UniProt O14965); test: Inhibition assay of Aurora-2 activity (SPA technology); assay type: biochemical
T1 sequence (O14965 1-403): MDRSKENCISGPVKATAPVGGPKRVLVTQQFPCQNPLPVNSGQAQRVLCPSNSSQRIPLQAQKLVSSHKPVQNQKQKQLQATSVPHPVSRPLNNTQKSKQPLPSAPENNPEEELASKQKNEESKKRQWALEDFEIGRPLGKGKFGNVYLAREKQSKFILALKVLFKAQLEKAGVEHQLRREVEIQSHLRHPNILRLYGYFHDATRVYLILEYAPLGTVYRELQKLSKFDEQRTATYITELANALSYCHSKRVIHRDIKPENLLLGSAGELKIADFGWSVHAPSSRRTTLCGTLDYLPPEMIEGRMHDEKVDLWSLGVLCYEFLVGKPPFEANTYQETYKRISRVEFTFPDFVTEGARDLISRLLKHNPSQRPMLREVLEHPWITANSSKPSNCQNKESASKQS
Description: The inhibiting activity and the potency of selected compounds is determined through a method of assay based on the use of the SPA technology (Amersham Pharmacia Biotech).
The assay consists of the transfer of radioactivity labelled phosphate moiety by the kinase to a biotinylated substrate. The resulting 33P-labelled biotinylated product is allowed to bind to streptavidin-coated SPA beads (biotin capacity 130 pmol/mg), and light emitted was measured in a scintillation counter.
Inhibition Assay of Aurora-2 Activity
After 60 minutes at room temperature incubation, reaction was stopped and biotinylated peptide captured by adding 100 μl of bead suspension.
Stratification: 100 μl of CsCl2 5 M were added to each well and let stand 4 hour before radioactivity was counted in the Top-Count instrument.
Experimental data were analyzed by the computer program GraphPad Prizm using the four parameter logistic equation: y=bottom+(top−bottom)/(1+10^((logIC50−x)*slope)) where x is the logarithm of the inhibitor concentration, y is the response; y starts at bottom and goes to top with a sigmoid shape.

[1] = system: human colon cancer cell line HCT-116; test: In vitro cell proliferation assay; assay type: cell-based; settings: HCT-116, 72 hours of treatment, cell count, read-out: Cell Antiproliferation IC50
Description: The compounds of the invention were further tested, in vitro, to assess the anti-proliferative effect onto cell cultures.
In Vitro Cell Proliferation Assay
The human colon cancer cell line HCT-116 was seeded at 5000 cells/cm2 in 24 wells plate (Costar) using F12 medium (Gibco) supplemented with 10% FCS (EuroClone, Italy) 2 mM L-glutamine and 1% penicillin/streptomycin and maintained at 37° C., 5% CO2 and 96% relative humidity. The following day, plates were treated in duplicates with 5 ul of an appropriate dilution of compounds starting from a 10 mM stock in DMSO. Two untreated control wells were included in each plate. After 72 hours of treatment, medium was withdrawn and cells detached from each well using 0.5 mL of 0.05% (w/v) Trypsin, 0.02% (w/v) EDTA (Gibco). Samples were diluted with 9.5 mL of Isoton (Coulter) and counted using a Multisizer 3 cell counter (Beckman Coulter). Data were evaluated as percent of the control wells: % of CTR=(Treated−Blank)/(Control−Blank).
IC50 values were calculated by LSW/Data Analysis using Microsoft Excel sigmoidal curve fitting.

[2] = SPA assay, 10 μM ATP, 60 minutes at room temperature, read-out: Aurora-2 inhibition IC50
[3] = screened according to the methods of the pharmacology section, read-out: IC50 values for Aurora-2 inhibition

| SMILES | IC50 (Aurora-2; [2]) [µM] | IC50 (Aurora-2; [3]) [µM] | IC50 [1] [µM] |
| --- | --- | --- | --- |
| O=C(Nc1n[nH]c2sc(C(=O)NC3(c4ccccc4)CC3)cc12)c1ccc(N2CCOCC2)cc1 [Compound 2, 3-[(4-morpholin-4-ylbenzoyl)amino]-N-(1-phenylcyclopropyl)-1H-thieno[2,3-c]pyrazole-5-carboxamide] | 0.003 | < 0.02 | 0.023 |
| CC(C)(NC(=O)c1cc2c(NC(=O)c3cccs3)n[nH]c2s1)c1ccccc1 [Compound 16, N-(1-methyl-1-phenylethyl)-3-[(thien-2-ylcarbonyl)amino]-1H-thieno[2,3-c]pyrazole-5-carboxamide] | 0.003 | < 0.02 | 0.056 |
| C[C@@H](NC(=O)c1cc2c(NC(=O)c3ccc(N4CCN(C)CC4)cc3)n[nH]c2s1)c1ccccc1 [Compound 36, 3-{[4-(4-methylpiperazin-1-yl)benzoyl]amino}-N-[(1R)-1-phenylethyl]-1H-thieno[2,3-c]pyrazole-5-carboxamide] |  |  | 0.005 |
| CC[C@@H](NC(=O)c1cc2c(NC(=O)c3ccc(N4CCN(C)CC4)cc3)n[nH]c2s1)c1ccccc1 [Compound 30, 3-{[4-(4-methylpiperazin-1-yl)benzoyl]amino}-N-[(1R)-1-phenylpropyl]-1H-thieno[2,3-c]pyrazole-5-carboxamide] |  | < 0.02 |  |
| O=C(Nc1n[nH]c2sc(C(=O)N[C@H](CN3CCOCC3)c3ccccc3)cc12)c1ccc(N2CCOCC2)cc1 [Compound 6, 3-[(4-morpholin-4-ylbenzoyl)amino]-N-[(1S)-2-morpholin-4-yl-1-phenylethyl]-1H-thieno[2,3-c]pyrazole-5-carboxamide] |  | < 0.02 |  |
| O=C(Nc1n[nH]c2sc(C(=O)N[C@H](CN3CCOCC3)c3ccccc3)cc12)c1cccs1 [Compound 15, N-[(1S)-2-morpholin-4-yl-1-phenylethyl]-3-[(thien-2-ylcarbonyl)amino]-1H-thieno[2,3-c]pyrazole-5-carboxamide] |  | < 0.02 |  |
| CC(C)(NC(=O)c1cc2c(NC(=O)c3cccs3)n[nH]c2s1)c1ccccc1F [Compound 123, 3-[(Thiophene-2-carbonyl)-amino]-1H-thieno[2,3-c]pyrazole-5-carboxylic acid [1-(2-fluoro-phenyl)-1-methyl-ethyl]-amide] |  | < 0.02 |  |
| CN1CCN(c2ccc(C(=O)Nc3n[nH]c4sc(C(=O)N[C@H](CN5CCOCC5)c5ccccc5)cc34)cc2)CC1 [Compound 31, 3-{[4-(4-methylpiperazin-1-yl)benzoyl]amino}-N-[(1S)-2-morpholin-4-yl-1-phenylethyl]-1H-thieno[2,3-c]pyrazole-5-carboxamide] |  | < 0.02 |  |
| O=C(Nc1n[nH]c2sc(C(=O)NC3(c4ccccc4)CCCC3)cc12)c1ccc(N2CCOCC2)cc1 [Compound 131, 3-(4-Morpholin-4-yl-benzoylamino)-1H-thieno[2,3-c]pyrazole-5-carboxylic acid (1-phenyl-cyclopentyl)-amide] |  | < 0.02 |  |
| O=C(Nc1n[nH]c2sc(C(=O)NC3(c4ccccc4)CC3)cc12)c1cccs1 [Compound 18, N-(1-phenylcyclopropyl)-3-[(thien-2-ylcarbonyl)amino]-1H-thieno[2,3-c]pyrazole-5-carboxamide] |  | < 0.02 |  |
| C[C@](CN1CCOCC1)(NC(=O)c1cc2c(NC(=O)c3ccc(N4CCOCC4)cc3)n[nH]c2s1)c1ccccc1 [Compound 137, 3-(4-Morpholin-4-yl-benzoylamino)-1H-thieno[2,3-c]pyrazole-5-carboxylic acid ((S)-1-methyl-2-morpholin-4-yl-1-phenyl-ethyl)-amide] |  | < 0.02 |  |

Further lines, results first:

| IC50 (Aurora-2; [2]) [µM] | IC50 (Aurora-2; [3]) [µM] | IC50 [1] [µM] | SMILES |
| --- | --- | --- | --- |
| 0.009 | < 0.02 | 0.03 | O=C(Nc1n[nH]c2sc(C(=O)N[C@H](CN3CCCC3)c3ccccc3)cc12)c1ccc(N2CCOCC2)cc1 [Compound 5, 3-[(4-morpholin-4-ylbenzoyl)amino]-N-[(1S)-1-phenyl-2-pyrrolidin-1-ylethyl]-1H-thieno[2,3-c]pyrazole-5-carboxamide] |
| 0.006 | < 0.02 | 0.035 | C[C@@H](NC(=O)c1cc2c(NC(=O)c3ccc(N4CCOCC4)cc3)n[nH]c2s1)c1ccc(F)cc1 [Compound 3, N-[(1R)-1-(4-fluorophenyl)ethyl]-3-[(4-morpholin-4-ylbenzoyl)amino]-1H-thieno[2,3-c]pyrazole-5-carboxamide] |
| 0.005 | < 0.02 | 0.006 | CC(C)(NC(=O)c1cc2c(NC(=O)c3ccc(N4CCOCC4)cc3)n[nH]c2s1)c1ccccc1 [Compound 1, N-(1-methyl-1-phenylethyl)-3-[(4-morpholin-4-ylbenzoyl)amino]-1H-thieno[2,3-c]pyrazole-5-carboxamide] |
| 0.001 | < 0.02 | 0.002 | CN1CCN(c2ccc(C(=O)Nc3n[nH]c4sc(C(=O)NC(C)(C)c5ccccc5)cc34)cc2)CC1 [Compound 29, N-(1-methyl-1-phenylethyl)-3-{[4-(4-methylpiperazin-1-yl)benzoyl]amino}-1H-thieno[2,3-c]pyrazole-5-carboxamide] |
|  | < 0.02 |  | CC(C)(NC(=O)c1cc2c(NC(=O)c3ccc(Cn4ccnc4)cc3)n[nH]c2s1)c1ccccc1 [Compound 48, 3-(4-Imidazol-1-ylmethyl-benzoylamino)-1H-thieno[2,3-c]pyrazole-5-carboxylic acid (1-methyl-1-phenyl-ethyl)-amide] |
|  | < 0.02 |  | CC(C)(NC(=O)c1cc2c(NC(=O)c3ccc(CNC4CCCC4)cc3)n[nH]c2s1)c1ccccc1 [Compound 65, 3-(4-Cyclopentylaminomethyl-benzoylamino)-1H-thieno[2,3-c]pyrazole-5-carboxylic acid (1-methyl-1-phenyl-ethyl)-amide] |
|  | < 0.02 |  | CC(C)(NC(=O)c1cc2c(NC(=O)c3ccc(N4CCOCC4)cc3)n[nH]c2s1)c1cccc(S(C)(=O)=O)c1 [Compound 147, 3-(4-Morpholin-4-yl-benzoylamino)-1H-thieno[2,3-c]pyrazole-5-carboxylic acid [1-(3-methanesulfonyl-phenyl)-1-methyl-ethyl]amide] |
|  | < 0.02 |  | CN1CCN(c2ccc(C(=O)Nc3n[nH]c4sc(C(=O)NC(C)(C)c5ccccc5F)cc34)cc2)CC1 [Compound 141, 3-[4-(4-Methyl-piperazin-1-yl)-benzoylamino]-1H-thieno[2,3-c]pyrazole-5-carboxylic acid[1-(2-fluoro-phenyl)-1-methyl-ethyl]amide] |
|  | < 0.02 |  | CC(C)(NC(=O)c1cc2c(NC(=O)c3cccs3)n[nH]c2s1)c1cccc(F)c1 [Compound 124, 3-[(Thiophene-2-carbonyl)-amino]-1H-thieno[2,3-c]pyrazole-5-carboxylic acid [1-(3-fluoro-phenyl)-1-methyl-ethyl]-amide] |
|  | < 0.02 |  | CC(C)(NC(=O)c1cc2c(NC(=O)c3ccc(CN4CCCCC4)cc3)n[nH]c2s1)c1cccc(F)c1 [Compound 51, 3-(4-Piperidin-1-ylmethyl-benzoylamino)-1H-thieno[2,3-c]pyrazole-5-carboxylic acid [1-(3-fluoro-phenyl)-1-methyl-ethyl]-amide] |
|  | < 0.02 |  | CC(C)N(C)Cc1ccc(C(=O)Nc2n[nH]c3sc(C(=O)NC(C)(C)c4ccccc4)cc23)cc1 [Compound 64, 3-{4-[(Isopropyl-methyl-amino)-methyl]benzoylamino}-1H-thieno[2,3-c]pyrazole-5-carboxylic acid (1-methyl-1-phenyl-ethyl)-amide] |
|  | < 0.02 |  | CN1CCN(c2ccc(C(=O)Nc3n[nH]c4sc(C(=O)NC(C)(C)c5cccc(Cl)c5)cc34)cc2)CC1 [Compound 132, 3-[4-(4-Methyl-piperazin-1-yl)-benzoylamino]-1H-thieno[2,3-c]pyrazole-5-carboxylic acid[1-(3-chloro-phenyl)-1-methyl-ethyl]amide] |
|  | < 0.02 |  | CC(C)(NC(=O)c1cc2c(NC(=O)c3ccco3)n[nH]c2s1)c1ccccc1 [Compound 24, 3-(2-furoylamino)-N-(1-methyl-1-phenylethyl)-1H-thieno[2,3-c]pyrazole-5-carboxamide] |
